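Dose response: 5 concentrations. Exposure: 48 h. Format: 96-well plates. Endpoint: linear interpolation; highest concentration if not reached. TGI: total growth inhibition.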
What was measured:
Assay in all cases: inhibition of tumour cell growth, NCI panel, 48 h
[1] = tested on: 786-0 renal
[2] = tested on: A498 renal
[3] = tested on: A549 NSCLC
[4] = tested on: ACHN renal
[5] = tested on: BT-549 breast
[6] = tested on: CAKI-1 renal
[7] = tested on: CCRF-CEM leukemia
[8] = tested on: COLO 205 colon
[9] = tested on: DU-145 prostate
[10] = tested on: EKVX NSCLC
[11] = tested on: HCC-2998 colon
[12] = tested on: HCT-116 colon
[13] = tested on: HCT-15 colon
[14] = tested on: HOP-62 NSCLC
[15] = tested on: HS 578T breast
[16] = tested on: HT29 colon
[17] = tested on: IGROV1 ovarian
[18] = tested on: K-562 leukemia
[19] = tested on: KM12 colon
[20] = tested on: M14 melanoma
[21] = tested on: MALME-3M melanoma
[22] = tested on: MCF7 breast
[23] = tested on: MDA-MB-231 breast
[24] = tested on: MDA-MB-435
[25] = tested on: MDA-N
[26] = tested on: MOLT-4 leukemia
[27] = tested on: NCI-H226 lung
[28] = tested on: NCI-H23 lung
[29] = tested on: NCI-H522 lung
[30] = tested on: NCI/ADR-RES ovarian
[31] = tested on: OVCAR-3 ovarian
[32] = tested on: OVCAR-4 ovarian
[33] = tested on: OVCAR-5 ovarian
[34] = tested on: OVCAR-8 ovarian
[35] = tested on: PC-3 prostate
[36] = tested on: RPMI-8226 leukemia
[37] = tested on: RXF 393 renal
[38] = tested on: SF-268 CNS
[39] = tested on: SF-295 CNS
[40] = tested on: SK-MEL-2 melanoma
[41] = tested on: SK-MEL-28 melanoma
[42] = tested on: SK-MEL-5 melanoma
[43] = tested on: SK-OV-3 ovarian
[44] = tested on: SN12C renal
[45] = tested on: SNB-19 CNS
[46] = tested on: SNB-75 CNS
[47] = tested on: SW-620 colon
[48] = tested on: T-47D breast
[49] = tested on: TK-10 renal
[50] = tested on: U251 CNS
[51] = tested on: UACC-257 melanoma
[52] = tested on: UACC-62 melanoma
[53] = tested on: UO-31 renal
[54] = tested on: HL-60(TB) leukemia
[55] = tested on: HOP-92 NSCLC
[56] = tested on: LOX IMVI melanoma
[57] = tested on: NCI-H460 lung
[58] = tested on: SF-539 CNS
[59] = tested on: SR leukemia

CN(C)C(=C1c2cc([N+](=O)[O-])ccc2-c2ccc([N+](=O)[O-])cc21)N(C)C
TGI [1]: > 100 µM
TGI [2]: > 100 µM
TGI [3]: > 100 µM
TGI [4]: > 100 µM
TGI [5]: > 100 µM
TGI [6]: > 100 µM
TGI [7]: > 100 µM
TGI [8]: > 100 µM
TGI [9]: > 100 µM
TGI [10]: > 100 µM
TGI [11]: > 100 µM
TGI [12]: > 100 µM
TGI [13]: > 100 µM
TGI [14]: > 100 µM
TGI [15]: > 100 µM
TGI [16]: > 100 µM
TGI [17]: > 100 µM
TGI [18]: > 100 µM
TGI [19]: > 100 µM
TGI [20]: > 100 µM
TGI [21]: > 100 µM
TGI [22]: > 100 µM
TGI [23]: > 100 µM
TGI [24]: > 100 µM
TGI [25]: > 100 µM
TGI [26]: > 100 µM
TGI [27]: > 100 µM
TGI [28]: > 100 µM
TGI [29]: > 100 µM
TGI [30]: > 100 µM
TGI [31]: > 100 µM
TGI [32]: > 100 µM
TGI [33]: > 100 µM
TGI [34]: > 100 µM
TGI [35]: > 100 µM
TGI [36]: 25.3 µM
TGI [37]: > 100 µM
TGI [38]: > 100 µM
TGI [39]: > 100 µM
TGI [40]: > 100 µM
TGI [41]: > 100 µM
TGI [42]: > 100 µM
TGI [43]: > 100 µM
TGI [44]: > 100 µM
TGI [45]: > 100 µM
TGI [46]: > 100 µM
TGI [47]: > 100 µM
TGI [48]: > 100 µM
TGI [49]: > 100 µM
TGI [50]: > 100 µM
TGI [51]: > 100 µM
TGI [52]: > 100 µM
TGI [53]: > 100 µM

O=[N+]([O-])c1ccc(CS(=O)Cc2ccccc2)cc1 (stereo not given)
TGI [1]: > 100 µM
TGI [2]: > 100 µM
TGI [3]: > 100 µM
TGI [4]: > 100 µM
TGI [5]: > 100 µM
TGI [6]: > 100 µM
TGI [7]: > 100 µM
TGI [8]: > 100 µM
TGI [9]: > 100 µM
TGI [10]: > 100 µM
TGI [12]: > 100 µM
TGI [13]: > 100 µM
TGI [54]: > 100 µM
TGI [14]: > 100 µM
TGI [55]: > 100 µM
TGI [15]: > 100 µM
TGI [16]: > 100 µM
TGI [17]: > 100 µM
TGI [18]: > 100 µM
TGI [19]: > 100 µM
TGI [56]: > 100 µM
TGI [20]: > 100 µM
TGI [21]: > 100 µM
TGI [22]: > 100 µM
TGI [23]: > 100 µM
TGI [24]: > 100 µM
TGI [25]: > 100 µM
TGI [26]: > 100 µM
TGI [27]: > 100 µM
TGI [28]: > 100 µM
TGI [57]: > 100 µM
TGI [29]: > 100 µM
TGI [30]: > 100 µM
TGI [31]: > 100 µM
TGI [32]: > 100 µM
TGI [33]: > 100 µM
TGI [34]: > 100 µM
TGI [35]: > 100 µM
TGI [36]: > 100 µM
TGI [37]: > 100 µM
TGI [38]: > 100 µM
TGI [39]: > 100 µM
TGI [58]: > 100 µM
TGI [40]: > 100 µM
TGI [41]: > 100 µM
TGI [42]: > 100 µM
TGI [43]: > 100 µM
TGI [44]: > 100 µM
TGI [45]: > 100 µM
TGI [46]: > 100 µM
TGI [59]: > 100 µM
TGI [47]: > 100 µM
TGI [48]: > 100 µM
TGI [49]: > 100 µM
TGI [50]: > 100 µM
TGI [51]: > 100 µM
TGI [52]: > 100 µM
TGI [53]: > 100 µM

CN(C)c1ccc(C(N)=O)cn1
TGI [1]: > 100 µM
TGI [3]: > 100 µM
TGI [4]: > 100 µM
TGI [5]: > 100 µM
TGI [7]: > 100 µM
TGI [8]: > 100 µM
TGI [9]: > 100 µM
TGI [10]: > 100 µM
TGI [11]: > 100 µM
TGI [12]: > 100 µM
TGI [13]: > 100 µM
TGI [54]: > 100 µM
TGI [14]: > 100 µM
TGI [15]: > 100 µM
TGI [16]: > 100 µM
TGI [17]: > 100 µM
TGI [18]: > 100 µM
TGI [19]: > 100 µM
TGI [56]: > 100 µM
TGI [21]: > 100 µM
TGI [22]: > 100 µM
TGI [23]: > 100 µM
TGI [24]: > 100 µM
TGI [25]: > 100 µM
TGI [26]: > 100 µM
TGI [28]: > 100 µM
TGI [57]: > 100 µM
TGI [29]: > 100 µM
TGI [30]: > 100 µM
TGI [31]: > 100 µM
TGI [33]: > 100 µM
TGI [34]: > 100 µM
TGI [35]: > 100 µM
TGI [36]: > 100 µM
TGI [37]: > 100 µM
TGI [38]: > 100 µM
TGI [39]: > 100 µM
TGI [58]: > 100 µM
TGI [40]: > 100 µM
TGI [41]: > 100 µM
TGI [42]: > 100 µM
TGI [44]: > 100 µM
TGI [45]: > 100 µM
TGI [46]: > 100 µM
TGI [59]: > 100 µM
TGI [47]: > 100 µM
TGI [49]: > 100 µM
TGI [50]: > 100 µM
TGI [51]: > 100 µM
TGI [52]: > 100 µM
TGI [53]: > 100 µM

CN=C(N)N/N=C(\C)c1ccc2oc3ccc(/C(C)=N/NC(N)=NC)cc3c2c1
TGI [1]: > 100 µM
TGI [2]: > 31.3 µM
TGI [3]: > 100 µM
TGI [4]: > 48.8 µM
TGI [5]: > 22.8 µM
TGI [6]: 83 µM
TGI [7]: 9.06 µM
TGI [8]: > 100 µM
TGI [9]: > 100 µM
TGI [10]: > 100 µM
TGI [11]: 4.97 µM
TGI [12]: > 100 µM
TGI [13]: > 100 µM
TGI [54]: 10.7 µM
TGI [18]: 15 µM
TGI [19]: > 100 µM
TGI [20]: > 100 µM
TGI [24]: > 100 µM
TGI [25]: > 30.6 µM
TGI [26]: 2.42 µM
TGI [27]: 4.73 µM
TGI [57]: > 100 µM
TGI [30]: > 100 µM
TGI [31]: > 100 µM
TGI [32]: > 100 µM
TGI [33]: > 87 µM
TGI [34]: > 100 µM
TGI [35]: 10.7 µM
TGI [36]: 6.41 µM
TGI [37]: > 50.7 µM
TGI [39]: > 100 µM
TGI [40]: 5.24 µM
TGI [41]: > 100 µM
TGI [42]: > 100 µM
TGI [43]: 74 µM
TGI [44]: > 24.5 µM
TGI [45]: > 100 µM
TGI [59]: 4.75 µM
TGI [47]: 5.33 µM
TGI [49]: > 100 µM
TGI [51]: > 68.1 µM
TGI [52]: > 23.8 µM
TGI [53]: > 100 µM

From PubChem BioAssay (NCI)
